This note sets out measurements from PMC12195967, “Cobalt(II) Complexes of 4′–Nitro–Fenamic Acid: Characterization and Biological Evaluation” (Molecules, 2025).

Like-named read-outs stand apart in the source and are kept apart here.

Experiment [1] relates to supercoiled circular pBR322 plasmid DNA. Nature of the experiment: Cleavage and photocleavage of plasmid DNA (gel electrophoresis). It counts as biochemical. Particulars: compound 500 μM. The procedure: The cleavage of pBR322 plasmid DNA was evaluated both in the presence and absence of irradiation in order to further explore the interaction of the synthesized compounds with DNA and their possible biological efficacy. […] Following incubation of the samples at 37 °C, the impact of the compounds on pDNA was assessed using gel electrophoresis on 1% agarose gels stained with EB. Irradiation at 312 nm (UVB for 30 min), at 365 nm (UVA, for 120 min) or visible light (for 120 min) was also applied to further investigate the possibility of photocleavage activity of the compounds. […] The extent of pDNA damage from each compound was assessed by calculating the percentage of ss% and ds% using Equations (S4) and (S5).
S3.4 EB−displacement studies
The competition of the compounds with EB was investigated by fluorescence emission spectroscopy to examine whether the compounds can displace EB from its DNA−EB adduct. […] The solutions were excited at 540 nm and the emission was monitored from 550−700 nm with λmax = 592−594 nm and the effect of the addition of the compounds to the CT−DNA EB solution was recorded. […]
fluorescence emission bands at room temperature in solution or in the presence of CT DNA or EB under the same experimental conditions (λexcitation = 540 nm); therefore, the observed quenching of the EB−DNA solution may be attributed to the displacement of EB from its […]

In experiment [2] the test system is X. campestris, E. coli, B. subtilis and S. aureus. Nature of the experiment: Antibacterial activity, MIC summarised over the bacteria tested. Type of experiment: cell-based. Particulars: read-out: MIC values against the bacteria tested. The method, then: buffer (50 mM, pH 7.4). The absorbance was measured at 230 nm after 10 min. The antioxidant activity (reduction of H2O2) of the compounds was expressed as the percentage decrease of the initial H2O2 solution (H2O2%). L−ascorbic acid (or vitamin C) was used as a […]
S2 Antibacterial Activity studies
The antibacterial activity of the compounds was evaluated by determining their respective MIC values towards two Gram–(–) (Escherichia coli XL1 (E. coli) and Xanthomonas campestris ATCC 1395 (X. campestris)) and two Gram–(+) (Staphylococcus aureus ATCC 29213 (S. aureus) and Bacillus subtilis ATCC 6633 (B. subtilis)) bacterial species. Cultures of these microbial strains were grown on a rich selective agar medium and stored at 4°C. The selective media used were Nutrient Agar or Broth for B. subtilis and S. aureus, Yeast Mold Agar or Broth for X. campestris and Luria Agar or Broth for E. coli. Cells picked from the surface of the stored cultures were used to initiate liquid pre–cultures of the same selective medium at an initial turbidity of roughly 1 McFarland unit.
Pre–cultures were incubated for 24 h in a rotary shaking incubator and subsequently […]
progressive double dilution.

By MIC is commonly meant the lowest concentration that inhibits growth of the organism. On to `O=C(O)c1ccccc1Nc1ccc([N+](=O)[O-])cc1` [4′–NO2–fenH, 4′–nitrofenamic acid], for which the “total pDNA damage” value in experiment [1] (dark, 150 min) is given as 57%. For the same compound, the results for the MIC in experiment [2] and in experiment [2] (summary over the four strains) were 48 to 97 µM and 12.5 to 25 µg/mL, respectively.
For the compound `O=C([O-])c1ccccc1Nc1ccc([N+](=O)[O-])cc1.O=C([O-])c1ccccc1Nc1ccc([N+](=O)[O-])cc1.[Co+2].c1cnc2c(c1)ccc1cccnc12` [Complex 3, [Co(4′–NO2–fen)2(phen)]], the pDNA damage in experiment [1] (UVB irradiation 312 nm, 30 min) is given as 89%.
